Reference: patent publication US9072778B2, “Treatment regimen for N-MYC, c-MYC, and L-MYC amplified and overexpressed tumors” (UNIVERSITY OF HAWAII, priority 2005, dated 2015)

Experiments:
[1] = test system: retinoblastoma protein Rb; test: Western blot of Rb phosphorylation in inhibitor-treated NB cells; format: cell-based, human; conditions: LAN-1 and NMB-7; days 2 and 3
Description: (§1) To further investigate the mechanism that regulates G1 arrest in LAN-1 and NMB-7 cells, and to define the changes in associated protein responses, the cell cycle-related proteins p21^Waf1/Cip1, p27^Kip1, p53, Rb, and MYCN in NB cell lysates were studied. Cells were analyzed on days 1, 2, and 3. Equal amounts of total protein were loaded in all experiments. Proteins were scanned and the ratio of hypophosphorylated Rb (pRb) (lower band):hyperphosphorylated Rb (ppRb) (upper band) was calculated (b). MYCN bands were quantified and normalized relative to β-actin. Values are presented as percentage (%) of controls of day 1, 2 or 3. (c). The data are representative of at least three independent experiments.
The retinoblastoma protein Rb can be regulated through the action of p27^Kip1. Rb phosphorylation reduces the levels of functional Rb/E2F repressor complexes and activates E2F-responsive promoters important for moving the cell through the G1/S phase of the cell cycle. […] Rb hypophosphorylation was further confirmed with total Rb showing a visible mobility shift from a hyperphosphorylated form (upper band) to a hypophosphorylated form (lower band). […] Hypophosphorylation of Rb is a known consequence of p27^Kip1 induction, and this is in strong agreement with our findings.

MYCN = test: Western blot of MYCN in inhibitor-treated NB cells; format: cell-based, human; conditions: LAN-1 and NMB-7; 5 mM DFMO, 10 μM SAM486A (FIG. 7c)
Description: It has also been shown that MYCN can regulate p27^Kip1 in NB cells by targeting p27^Kip1 to the proteasome (Nakamura et al., (2003) Cell Death Differ, 10, 230-9, which is incorporated herein by reference in its entirety), and it is therefore possible that the observed increase in p27^Kip1 is in response to a decrease in MYCN. […] The regulation of ODC by MYCN has been previously proposed (Ben-Yosef et al., (1998) Oncogene, 17, 165-71; Lu et al., (2003) Cancer Lett, 197, 125-30; Lutz et al., (1996) Oncogene, 13, 803-12, each of which is incorporated herein by reference in its entirety), but has not been definitively confirmed. The precise mechanism by which polyamines regulate MYCN in NB cells remains to be further clarified.
as §1, with “The data are representative of at least three independent experiments.” left out

AdoMetDC = target: T1, AdoMetDC (Homo sapiens, UniProt P17707); test: AdoMetDC enzyme activity in lysates of inhibitor-treated NB cells; format: cell-based; conditions: for Specific enzyme activity ADOMETDC: DFMO = 5 mM, SAM486A = 10 μM, mean ± SD
T1 construct: processed AdoMetDC α chain (31 kDa) proteins were detected at the expected size in LAN-1 and NMB-7 cells; endogenous in cells; host or cells: LAN-1 and NMB-7 human neuroblastoma cells (LAN-1 only for the Western blot of treated cells)
T1 sequence (P17707 68-334 limits assumed): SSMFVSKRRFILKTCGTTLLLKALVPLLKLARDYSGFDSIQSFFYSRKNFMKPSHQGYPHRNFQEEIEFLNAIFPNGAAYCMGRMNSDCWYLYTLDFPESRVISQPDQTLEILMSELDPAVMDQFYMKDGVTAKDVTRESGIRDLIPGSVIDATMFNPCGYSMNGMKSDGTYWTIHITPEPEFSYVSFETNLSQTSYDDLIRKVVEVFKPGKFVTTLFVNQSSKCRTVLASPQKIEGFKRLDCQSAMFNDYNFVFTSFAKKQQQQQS
T1 sequence (P17707 1-67 limits assumed): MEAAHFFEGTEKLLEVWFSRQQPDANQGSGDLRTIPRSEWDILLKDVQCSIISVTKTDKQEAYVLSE
Description: Under identical experimental conditions, AdoMetDC activity was determined.
Human NB cell lines were provided by Dr. Robert Seeger (LAN-1; University of California, Los Angeles, Calif.), Dr. Nai-Kong Cheung (NMB-7; Memorial Sloan-Kettering Cancer Center, NY), and the American Type Culture Collection (SK-N-SH; ATCC, Manassas, Va.). Cells were maintained in RPMI 1640 (Biosource, Rockeville, Md.) containing 10% heat-inactivated fetal bovine serum (FBS) (Invitrogen, Carlsbad, Calif.), penicillin (100 IU/ml) and streptomycin (100 μg/ml). If cells were treated with exogenous Spd, 1 mM of aminoguanidine was included as an inhibitor of serum polyamine oxidation. […] For growth and proliferation inhibition, polyamine pool, and cell cycle studies, 10 μM Spd was added together with inhibitors, and cells were assayed on days 2 and/or 3.
ODC and AdoMetDC enzyme activities were determined using a standard assay known in the art. In brief, NB cells were washed twice with ice-cold PBS and harvested in 50 mM sodium phosphate buffer (pH 7.2), 0.1 mM EDTA, 2.5 mM DTT, supplemented with 1× protease inhibitor cocktail (Roche Molecular Biochemicals, Indianapolis, Ind.). For the measurement of AdoMetDC activity, cells were harvested in the above buffer supplemented with 2.5 mM Put. Cells were lysed by three freeze/thaw cycles and cell lysates were prepared by centrifugation for 20 minutes at 14,000 rpm and 4° C. ODC activity was measured in a reaction mixture that contained 20 μM L-[1-^14C]ornithine (47.70 mCi/mmol; NEN Life Science Products, Boston, Mass.). AdoMetDC activity was assayed in a reaction mixture that contained 8.2 μM S-adenosyl-L-[carboxy-^14C]methionine (58.0-61.0 mCi/mmol; Amersham Biosciences, Piscataway, N.J.) and 140.1 μM cold S-adenosylmethionine. […] Untreated or SAM486A-treated LAN-1 extracts were assayed for AdoMetDC activity after multiple rounds of sequential dilution with harvest buffer followed by concentration of the extract (Centricon YM-10, Millipore Corporation, Bedford, Mass.) to remove the inhibitor.

[2] = test system: human ovarian cancer cells (SKOV-3); test: Growth, proliferation and morphology of ovarian cancer cells; format: cell-based; conditions: DFMO or SAM486A
Description: (Bachmann, A S, (2004) Hawaii Med. Journal, 63:371-373, which is incorporated herein by reference in its entirety). […] Micrographs were taken using an inverted phase contrast microscope (Nikon). In comparison with the ovarian cancer cells SKOV-3, the growth and proliferation of NB cells LAN-1 was inhibited much more drastically and caused significant morphological changes after only 3 days of treatment.
Similar effects were already apparent after 1-2 days (not shown). By comparison, the treatment of human melanoma cells (MALME-3) with polyamine inhibitors required more extensive incubation times (8-12 days) and led to less obvious rearrangements in cell structures (Kramer et al., (2001). Cancer Res, 61, 7754-62, which is incorporate herein by reference in its entirety).

## NCCC[C@](N)(C(=O)O)C(F)F [DFMO, α-difluoromethylornithine]
[1]
  Rb phosphorylation (Ser795, Ser807/811): strong hypophosphorylation of Rb
MYCN
  MYCN protein: strong downregulation
AdoMetDC; LAN-1, 2 days after treatment
  Specific enzyme activity ADOMETDC: 689 ± 94 % OF CONTROL
AdoMetDC; NMB-7, 2 days after treatment
  Specific enzyme activity ADOMETDC: 582 ± 67 % OF CONTROL
[2]
  cell morphology: no visible changes in cell morphology

## N=C(N)c1cccc2c1CC/C2=N\N=C(N)N [SAM486A, 4-amidinoindan-1-one 2′-amidinohydrazone]
[1]
  Rb phosphorylation (Ser795, Ser807/811): much less pronounced
MYCN
  MYCN protein: almost no effect
AdoMetDC; LAN-1, 2 days after treatment
  Specific enzyme activity ADOMETDC: 169 ± 9 % OF CONTROL
AdoMetDC; NMB-7, 2 days after treatment
  Specific enzyme activity ADOMETDC: 200 ± 16 % OF CONTROL
AdoMetDC; SAM486A-treated LAN-1 extracts, data not shown
  increase of measured AdoMetDC activity after sequential dilution and concentration of lysates to remove residual inhibitor: ~100 fold
[2]
  cell morphology: no visible changes in cell morphology
